Patent US11420970B1 (NOVARTIS AG, priority 2019, dated 2022)
Where two headings read alike, the source gives them in different places.

Experiments:
NSD2 [1-1365] = NSD2 [1-1365] (Homo sapiens (Human), UniProt O96028); test: LC-MS/MS-based NSD2 enzymatic assay (SAH production); format: biochemical; details: read-out: NSD2 IC50
Outline: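 Full-length NSD2 [1-1365] (8 nM final) with 1 μM SAM and 400 nM mouse-liver nucleosome in Tris pH 8.0 buffer; inhibitor preincubated 20 min with enzyme/SAM before nucleosome addition. Reaction 90 min at room temperature, TFA-quenched; SAH quantified by LC-MS/MS against d4-SAH internal standard and SAH standard curve.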

[1] = test system: cellular H3K36me2 level in thyroid carcinoma cell line CGTH-W-1 (NSD2 E1099K); test: H3K36me2 cellular ELISA assay in CGTH-W-1 line; format: cell-based; details: Homo sapiens, CGTH-W-1, 72 h, read-out: H3K36me2 ELISA in CGTH-W-1
Outline: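 CGTH-W-1 thyroid carcinoma cells (NSD2 E1099K gain-of-function) exposed to compound for 72 hours. Histone-bound plates probed for H3K36me2 and total H3 by chemiluminescent ELISA. Viability checked on a parallel plate with CellTiter-Glo.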

[2] = test system: cellular H3K36me2 level in multiple myeloma cell line KMS11 (t(4;14)+); test: H3K36me2 cellular ELISA assay in KMS11-Par line; format: cell-based; details: Homo sapiens, KMS-11, ELISA, read-out: H3K36me2 ELISA in KMS11-Par
Outline: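 KMS11 cells were seeded a day ahead at 1,250 per well in Opti-MEM with B-27/N2, then treated with compound for 72 h. Histones were acid-extracted with 0.4M HCl, and H3K36me2 and total H3 were read by chemiluminescent ELISA. Viability was checked with CellTiter-Glo on a parallel plate in maintenance media.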

[3] = NSD2 biochemical activity, class symbols
[4] = KMS11-Par line (t(4;14)+), 72 hours treatment

Chain of NSD2 [1-1365] (O96028 whole entry): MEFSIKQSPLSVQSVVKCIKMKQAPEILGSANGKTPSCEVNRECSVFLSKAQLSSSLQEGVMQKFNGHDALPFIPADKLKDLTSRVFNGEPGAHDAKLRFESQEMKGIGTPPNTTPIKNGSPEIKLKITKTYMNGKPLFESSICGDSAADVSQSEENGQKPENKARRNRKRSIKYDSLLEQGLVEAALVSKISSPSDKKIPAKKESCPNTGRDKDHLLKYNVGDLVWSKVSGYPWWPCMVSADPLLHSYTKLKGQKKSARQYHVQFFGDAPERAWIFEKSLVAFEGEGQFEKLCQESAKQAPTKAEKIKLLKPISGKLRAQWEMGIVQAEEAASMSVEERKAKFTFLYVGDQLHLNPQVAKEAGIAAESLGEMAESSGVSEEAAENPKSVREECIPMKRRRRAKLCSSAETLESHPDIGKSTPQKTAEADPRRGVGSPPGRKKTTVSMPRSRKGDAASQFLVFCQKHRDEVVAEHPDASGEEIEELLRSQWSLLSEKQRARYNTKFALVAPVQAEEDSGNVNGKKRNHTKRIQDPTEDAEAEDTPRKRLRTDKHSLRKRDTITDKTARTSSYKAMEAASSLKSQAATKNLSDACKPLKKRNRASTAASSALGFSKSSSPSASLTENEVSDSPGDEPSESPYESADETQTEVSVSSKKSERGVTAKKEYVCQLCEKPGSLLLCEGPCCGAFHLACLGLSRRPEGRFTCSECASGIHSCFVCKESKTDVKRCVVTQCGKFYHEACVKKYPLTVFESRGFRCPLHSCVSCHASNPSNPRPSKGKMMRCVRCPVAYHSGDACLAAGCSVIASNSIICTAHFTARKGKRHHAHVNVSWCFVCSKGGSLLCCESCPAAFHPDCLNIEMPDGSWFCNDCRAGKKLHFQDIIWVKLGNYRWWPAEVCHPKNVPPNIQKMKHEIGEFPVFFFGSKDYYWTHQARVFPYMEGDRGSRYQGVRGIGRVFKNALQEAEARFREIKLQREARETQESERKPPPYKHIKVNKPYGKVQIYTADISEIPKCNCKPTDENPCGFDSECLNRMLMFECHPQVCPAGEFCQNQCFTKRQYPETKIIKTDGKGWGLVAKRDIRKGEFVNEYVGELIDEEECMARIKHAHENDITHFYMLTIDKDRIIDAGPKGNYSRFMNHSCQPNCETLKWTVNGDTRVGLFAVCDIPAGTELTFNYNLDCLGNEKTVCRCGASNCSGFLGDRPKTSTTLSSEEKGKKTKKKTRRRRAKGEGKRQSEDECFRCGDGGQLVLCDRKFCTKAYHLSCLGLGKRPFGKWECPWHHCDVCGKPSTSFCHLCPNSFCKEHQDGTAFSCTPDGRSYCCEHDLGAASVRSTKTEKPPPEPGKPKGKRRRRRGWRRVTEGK

For CNC(=O)[C@@]1(N)CCCN(c2cnc(-c3cccc(F)c3)cc2Cn2cnc3c(N)ncnc32)C1 [Example 78, (R)-3-amino-1-(4-((6-amino-9H-purin-9-yl)methyl)-6-(3-fluorophenyl)pyridin-3-yl)-N-methylpiperidine-3-carboxamide], the IC50 (NSD2 [1-1365]; [3]) was 1 to 10 nM, the IC50 [1] was 12 nM and the IC50 [2, 4] was 78 nM.
For COc1cc(F)c(-c2cc(Cn3cnc4c(N)ncnc43)c(N3CCC[C@](N)([C@@H](O)C(F)F)C3)cn2)cc1F [Example 160, (R)-1-((R)-3-amino-1-(4-((6-amino-9H-purin-9-yl)methyl)-6-(2,5-difluoro-4-methoxyphenyl)pyridin-3-yl)piperidin-3-yl)-2,2-difluoroethan-1-ol], the IC50 (NSD2 [1-1365]; [3]) was 1 to 10 nM, the IC50 [1] was 35 nM and the IC50 [2, 4] was 434 nM.
In the case of Cc1cc(F)c(F)cc1-c1cc(Cn2cnc3c(N)ncnc32)c(N2CCC[C@](N)([C@@H](O)C(F)F)C2)cn1 [Example 117, (R)-1-((R)-3-amino-1-(4-((6-amino-9H-purin-9-yl)methyl)-6-(4,5-difluoro-2-methylphenyl)pyridin-3-yl)piperidin-3-yl)-2,2-difluoroethan-1-ol], the IC50 (NSD2 [1-1365]; [3]) is reported as 1 to 10 nM, the IC50 [1] is reported as 67 nM and the IC50 [2, 4] is reported as 1320 nM.
Molecule COc1ccc(-c2cc(Cn3cnc4c(N)ncnc43)c(N3CCC[C@](N)(c4ccc(F)c(Cl)n4)C3)cn2)cc1F [Example 188, (R)-9-((5-(3-amino-3-(6-chloro-5-fluoropyridin-2-yl)piperidin-1-yl)-2-(3-fluoro-4-methoxyphenyl)pyridin-4-yl)methyl)-9H-purin-6-amine] has an IC50 (NSD2 [1-1365]) of 1 to 10 nM, an IC50 [1] of 1010 nM and an IC50 ([2]; KMS11-Par line, 72 hours) of 1910 nM.
Molecule Nc1ncnc2c1ncn2Cc1cc(-c2ccc(Cl)c(F)c2)ncc1N1CCC[C@](N)([C@H](O)C(F)F)C1 [Example 152, (S)-1-((R)-3-amino-1-(4-((6-amino-9H-purin-9-yl)methyl)-6-(4-chloro-3-fluorophenyl)pyridin-3-yl)piperidin-3-yl)-2,2-difluoroethan-1-ol] has an IC50 (NSD2 [1-1365]; [3]) of 10 to 1000 nM, an IC50 [1] of 68.7 nM and an IC50 [2, 4] of 1770 nM.
For Nc1ncnc2c1ncn2Cc1cc(-c2cc(F)c(F)cc2F)ncc1N1CCC[C@](N)([C@@H](O)C(F)F)C1 [Example 156, (R)-1-((R)-3-amino-1-(4-((6-amino-9H-purin-9-yl)methyl)-6-(2,4,5-trifluorophenyl)pyridin-3-yl)piperidin-3-yl)-2,2-difluoroethan-1-ol], the IC50 (NSD2 [1-1365]; [3]) was 1 to 10 nM, the IC50 [1] was 41 nM and the IC50 [2, 4] was 574 nM.
Work on COc1cc(F)ccc1-c1cc(Cn2cnc3c(N)ncnc32)c(N2CCC[C@](N)([C@@H](O)C(F)F)C2)cn1 [Example 174, (R)-1-((R)-3-amino-1-(4-((6-amino-9H-purin-9-yl)methyl)-6-(4-fluoro-2-methoxyphenyl)pyridin-3-yl)piperidin-3-yl)-2,2-difluoroethan-1-ol] yielded an IC50 (NSD2 [1-1365]) of 10 to 1000 nM, an IC50 [1] of 1160 nM and an IC50 ([2]; KMS11-Par line, 72 hours) of 10600 nM.
For COc1ccc(-c2cc(Cn3cnc4c(N)ncnc43)c(N3CCC[C@](N)(c4cccc(Cl)n4)C3)cn2)cc1F [Example 213, (R)-9-((5-(3-amino-3-(6-chloropyridin-2-yl)piperidin-1-yl)-2-(3-fluoro-4-methoxyphenyl)pyridin-4-yl)methyl)-9H-purin-6-amine], the IC50 (NSD2 [1-1365]) was 1 to 10 nM, the IC50 [1] was 258 nM and the IC50 ([2]; KMS11-Par line, 72 hours) was 387 nM.
COc1ccc(-c2cc(Cn3cnc4c(N)ncnc43)c(N3CCC[C@](N)(c4cccc(Cl)n4)C3)cn2)c(F)c1 [Example 181, (R)-9-((5-(3-amino-3-(6-chloropyridin-2-yl)piperidin-1-yl)-2-(2-fluoro-4-methoxyphenyl)pyridin-4-yl)methyl)-9H-purin-6-amine] was tested, and the IC50 (NSD2 [1-1365]) was 10 to 1000 nM, the IC50 [1] was 1560 nM and the IC50 ([2]; KMS11-Par line, 72 hours) was 1980 nM.
Work on Nc1ncnc2c1ncn2Cc1cc(-c2cc(F)c(OC(F)F)cc2F)ncc1N1CCC[C@](N)([C@@H](O)C(F)F)C1 [Example 150, (R)-1-((R)-3-amino-1-(4-((6-amino-9H-purin-9-yl)methyl)-6-(4-(difluoromethoxy)-2,5-difluorophenyl)pyridin-3-yl)piperidin-3-yl)-2,2-difluoroethan-1-ol] yielded an IC50 (NSD2 [1-1365]; [3]) of 10 to 1000 nM, an IC50 [1] of 307 nM and an IC50 [2, 4] of 1670 nM.
Work on COc1ccc(-c2cc(Cn3cnc4c(N)ncnc43)c(N3CCC[C@](N)(c4ccc(F)c(C)n4)C3)cn2)cc1 [Example 241, (R)-9-((5-(3-amino-3-(5-fluoro-6-methylpyridin-2-yl)piperidin-1-yl)-2-(4-methoxyphenyl)pyridin-4-yl)methyl)-9H-purin-6-amine] yielded an IC50 (NSD2 [1-1365]) of 10 to 1000 nM, an IC50 [1] of 1190 nM and an IC50 ([2]; KMS11-Par line, 72 hours) of 4080 nM.
COc1ccc(-c2cc(Cn3cnc4c(N)ncnc43)c(N3CCC[C@](N)(c4cccc(Cl)n4)C3)cn2)nc1Cl [Example 194, (R)-9-((5-(3-amino-3-(6-chloropyridin-2-yl)piperidin-1-yl)-6′-chloro-5′-methoxy-[2,2′-bipyridin]-4-yl)methyl)-9H-purin-6-amine] gave an IC50 (NSD2 [1-1365]) of 10 to 1000 nM, an IC50 [1] of 805 nM and an IC50 ([2]; KMS11-Par line, 72 hours) of 3280 nM.
With CC(=C(F)F)[C@@]1(N)CCCN(c2cnc(-c3ccc(F)c(F)c3)cc2Cn2cnc3c(N)ncnc32)C1 [Example 293, (S)-9-((5-(3-amino-3-(1,1-difluoroprop-1-en-2-yl)piperidin-1-yl)-2-(3,4-difluorophenyl)pyridin-4-yl)methyl)-9H-purin-6-amine] the IC50 (NSD2 [1-1365]) was 10 to 1000 nM, the IC50 [1] was 1300 nM and the IC50 ([2]; KMS11-Par line, 72 hours) was 3210 nM.
COc1ccc(-c2cc(Cn3cnc4c(N)ncnc43)c(N3CCC[C@](N)(C(F)F)C3)cn2)cc1F [Example 305, (R)-9-((5-(3-amino-3-(difluoromethyl)piperidin-1-yl)-2-(3-fluoro-4-methoxyphenyl)pyridin-4-yl)methyl)-9H-purin-6-amine] gave an IC50 (NSD2 [1-1365]) of 10 to 1000 nM, an IC50 [1] of 3400 nM and an IC50 ([2]; KMS11-Par line, 72 hours) of 4800 nM.
Cn1ccc(C[C@@]2(N)CCCN(c3cnc(-c4ccc(F)c(F)c4)cc3Cn3cnc4c(N)ncnc43)C2)n1 [Example 56, (S)-9-((5-(3-amino-3-((1-methyl-1H-pyrazol-3-yl)methyl)piperidin-1-yl)-2-(3,4-difluorophenyl)pyridin-4-yl)methyl)-9H-purin-6-amine] was tested, and the IC50 (NSD2 [1-1365]; [3]) was 1 to 10 nM, the IC50 [1] was 273 nM and the IC50 [2, 4] was 234 nM.
Work on Cc1cccc([C@@]2(N)CCCN(c3cnc(-c4ccc(F)c(F)c4)cc3Cn3cnc4c(N)ncnc43)C2)[n+]1[O-] [Example 232, (R)-2-(3-amino-1-(4-((6-amino-9H-purin-9-yl)methyl)-6-(3,4-difluorophenyl)pyridin-3-yl)piperidin-3-yl)-6-methylpyridine 1-oxide] yielded an IC50 (NSD2 [1-1365]) of 10 to 1000 nM, an IC50 [1] of 1470 nM and an IC50 ([2]; KMS11-Par line, 72 hours) of 7650 nM.
COc1ccc(-c2cc(Cn3cnc4c(N)ncnc43)c(N3CCC[C@](N)([C@H](O)C(F)F)C3)cn2)cc1Cl [Example 125, (S)-1-((R)-3-amino-1-(4-((6-amino-9H-purin-9-yl)methyl)-6-(3-chloro-4-methoxyphenyl)pyridin-3-yl)piperidin-3-yl)-2,2-difluoroethan-1-ol] showed an IC50 (NSD2 [1-1365]; [3]) of 1 to 10 nM, an IC50 [1] of 775 nM and an IC50 [2, 4] of 3950 nM.
Work on COc1cc(F)c(-c2cc(Cn3cnc4c(N)ncnc43)c(N3CCC[C@](N)(c4cccc(Cl)n4)C3)cn2)c(F)c1 [Example 236, (R)-9-((5-(3-amino-3-(6-chloropyridin-2-yl)piperidin-1-yl)-2-(2,6-difluoro-4-methoxyphenyl)pyridin-4-yl)methyl)-9H-purin-6-amine] yielded an IC50 (NSD2 [1-1365]) of 10 to 1000 nM, an IC50 [1] of 1390 nM and an IC50 ([2]; KMS11-Par line, 72 hours) of 6300 nM.
With Nc1ncnc2c1ncn2Cc1cc(-c2ccc(F)c(F)c2)ncc1N1CCC[C@](N)(c2ccc[nH]c2=O)C1 [Example 272, (S)-3-(3-amino-1-(4-((6-amino-9H-purin-9-yl)methyl)-6-(3,4-difluorophenyl)pyridin-3-yl)piperidin-3-yl)pyridin-2(1H)-one] the IC50 (NSD2 [1-1365]) was 1 to 10 nM, the IC50 [1] was 1750 nM and the IC50 ([2]; KMS11-Par line, 72 hours) was 10500 nM.
For Nc1ncnc2c1ncn2Cc1cc(-c2ccc(OC(F)F)cc2F)ncc1N1CCC[C@](N)([C@H](O)C(F)F)C1 [Example 153, (S)-1-((R)-3-amino-1-(4-((6-amino-9H-purin-9-yl)methyl)-6-(4-(difluoromethoxy)-2-fluorophenyl)pyridin-3-yl)piperidin-3-yl)-2,2-difluoroethan-1-ol], the IC50 (NSD2 [1-1365]; [3]) was 10 to 1000 nM, the IC50 [1] was 217 nM and the IC50 [2, 4] was 5080 nM.
Nc1ncnc2c1ncn2Cc1cc(-c2ccc(F)c(F)c2)ncc1N1CCC[C@](N)(c2nc(F)ccc2O)C1 [Example 239, (R)-2-(3-amino-1-(4-((6-amino-9H-purin-9-yl)methyl)-6-(3,4-difluorophenyl)pyridin-3-yl)piperidin-3-yl)-6-fluoropyridin-3-ol] was tested, and the IC50 (NSD2 [1-1365]) was 1 to 10 nM, the IC50 [1] was 353 nM and the IC50 ([2]; KMS11-Par line, 72 hours) was 1540 nM.
In the case of COc1ccc(-c2cc(Cn3cnc4c(N)ncnc43)c(N3CCC[C@](N)(c4cccc(Cl)n4)C3)cn2)nc1F [Example 224, (R)-9-((5-(3-amino-3-(6-chloropyridin-2-yl)piperidin-1-yl)-6′-fluoro-5′-methoxy-[2,2′-bipyridin]-4-yl)methyl)-9H-purin-6-amine], the IC50 (NSD2 [1-1365]) is reported as 1 to 10 nM, the IC50 [1] is reported as 348 nM and the IC50 ([2]; KMS11-Par line, 72 hours) is reported as 1710 nM.
